Data from patent publication US20150291593A1, “NOVEL HETEROARYL AND HETEROCYCLE COMPOUNDS, COMPOSITIONS AND METHODS” (HUTCHISON MEDIPHARMA LIMITED, priority 2012, published 2015).

Assays:
[1] = molecular target: T1, p110β/p85α (Homo sapiens, UniProt P42338); assay: Transcreener KINASE Assay, kinase inhibition of p110β/p85α; assay type: biochemical; conditions: for IC50: read-out: PI3Kβ IC50
T1 construct: purchased Millipore
Procedure: (§1) PI3K kinases including p110α/p85α, p110δ/p85α and p110γ are purchased from Invitrogen, and p110β/p85α is from Millipore.
(§2) Primary screening data and IC50 values are measured using Transcreener™ KINASE Assay (Bellbrook, Catalog #3003-10K). […] It is a universal, homogenous, high throughput screening (HTS) technology using a far-red, competitive fluorescence polarization immunoassay based on the detection of ADP to monitor the activity of enzymes that catalyze group transfer reactions. Briefly, the Transcreener KINASE Assay is designed as a simple two-part, endpoint assay.
(§3) In the first step, the 25 ul kinase reaction is performed by preparing a reaction mixture containing 5 ul test compound (2% DMSO final concentration), 10 ul kinase, buffer (50 mM HEPES, 100 mM NaCl, 1 mM EGTA, 0.03% CHAPS, 3 mM MgCl2, and freshly supplemented 1 mM DTT), and 10 ul 30 uM PIP2/10 uM ATP. The plate is sealed and incubated for 80 min at room temperature. Next, 25 ul ADP detection mix is added per well. The plate is sealed again and incubated for 60 min at room temperature, and then measure fluorescence polarization by Tecan Infinite F500 Reader.
(§4) Data is analyzed and IC50s are generated using the add-in software for Microsoft Excel, Xlfit™ (version 2.0). IH %=(ADP amount under 2% DMSO-ADP amount under test compound)/ADP amount under 2% DMSO.

[2] = molecular target: T2, p110δ/p85α (Homo sapiens, UniProt O00329); assay: Transcreener KINASE Assay, kinase inhibition of p110δ/p85α; assay type: biochemical; conditions: for IC50: read-out: PI3Kδ IC50
T2 construct: purchased Invitrogen
T2 sequence (O00329 whole entry, species assumed): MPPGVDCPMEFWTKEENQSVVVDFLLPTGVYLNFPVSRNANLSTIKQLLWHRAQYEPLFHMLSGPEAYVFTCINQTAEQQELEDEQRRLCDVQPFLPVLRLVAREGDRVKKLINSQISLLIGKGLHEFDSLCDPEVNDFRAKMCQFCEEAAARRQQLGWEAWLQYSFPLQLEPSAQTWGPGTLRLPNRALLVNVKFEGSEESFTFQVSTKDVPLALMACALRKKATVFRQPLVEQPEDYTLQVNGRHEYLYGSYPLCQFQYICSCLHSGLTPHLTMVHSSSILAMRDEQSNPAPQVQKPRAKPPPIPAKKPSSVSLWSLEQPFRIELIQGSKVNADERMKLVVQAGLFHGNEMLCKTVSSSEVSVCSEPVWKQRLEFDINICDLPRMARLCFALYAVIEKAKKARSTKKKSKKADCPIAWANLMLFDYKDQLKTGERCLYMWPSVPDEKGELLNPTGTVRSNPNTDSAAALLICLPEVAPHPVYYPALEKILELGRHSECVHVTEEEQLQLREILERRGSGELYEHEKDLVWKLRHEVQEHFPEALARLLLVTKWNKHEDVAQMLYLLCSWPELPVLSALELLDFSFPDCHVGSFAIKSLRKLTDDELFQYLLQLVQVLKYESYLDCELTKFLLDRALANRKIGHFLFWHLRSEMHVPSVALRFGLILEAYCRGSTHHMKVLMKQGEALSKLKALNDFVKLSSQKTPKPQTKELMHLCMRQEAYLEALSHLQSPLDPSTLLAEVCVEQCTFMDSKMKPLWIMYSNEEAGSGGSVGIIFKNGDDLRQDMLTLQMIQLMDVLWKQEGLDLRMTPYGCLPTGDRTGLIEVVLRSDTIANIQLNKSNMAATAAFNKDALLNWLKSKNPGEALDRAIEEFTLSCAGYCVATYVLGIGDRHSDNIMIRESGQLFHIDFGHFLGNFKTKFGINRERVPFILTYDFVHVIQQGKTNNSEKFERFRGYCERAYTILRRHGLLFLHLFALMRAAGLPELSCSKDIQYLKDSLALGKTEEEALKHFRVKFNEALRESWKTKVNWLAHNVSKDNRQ
T2 sequence (P27986 whole entry partner, species assumed): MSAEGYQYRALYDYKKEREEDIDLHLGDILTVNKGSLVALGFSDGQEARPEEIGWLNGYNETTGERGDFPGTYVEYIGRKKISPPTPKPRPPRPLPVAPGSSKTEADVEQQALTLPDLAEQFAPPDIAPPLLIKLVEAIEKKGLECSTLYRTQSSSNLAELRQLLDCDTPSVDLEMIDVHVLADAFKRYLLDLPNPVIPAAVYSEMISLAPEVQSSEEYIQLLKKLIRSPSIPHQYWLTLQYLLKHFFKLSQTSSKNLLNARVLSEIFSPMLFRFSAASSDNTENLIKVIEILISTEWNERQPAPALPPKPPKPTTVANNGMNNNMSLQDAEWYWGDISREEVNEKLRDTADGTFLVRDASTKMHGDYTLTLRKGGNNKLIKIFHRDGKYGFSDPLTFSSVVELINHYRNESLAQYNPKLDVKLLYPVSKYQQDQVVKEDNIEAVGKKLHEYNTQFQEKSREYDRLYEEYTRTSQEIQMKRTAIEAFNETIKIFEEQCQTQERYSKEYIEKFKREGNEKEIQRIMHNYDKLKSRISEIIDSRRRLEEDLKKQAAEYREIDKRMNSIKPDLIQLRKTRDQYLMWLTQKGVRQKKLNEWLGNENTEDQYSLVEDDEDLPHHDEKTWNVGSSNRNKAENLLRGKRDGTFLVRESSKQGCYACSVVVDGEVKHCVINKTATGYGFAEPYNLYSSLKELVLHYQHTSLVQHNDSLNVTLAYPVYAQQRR
Procedure: as §1, §2, §3, §4

[3] = molecular target: T3, p110γ (Homo sapiens, UniProt P48736); assay: Transcreener KINASE Assay, kinase inhibition of p110γ; assay type: biochemical; conditions: for IC50: read-out: PI3Kγ IC50
T3 construct: purchased Invitrogen
T3 sequence (P48736 whole entry, species assumed): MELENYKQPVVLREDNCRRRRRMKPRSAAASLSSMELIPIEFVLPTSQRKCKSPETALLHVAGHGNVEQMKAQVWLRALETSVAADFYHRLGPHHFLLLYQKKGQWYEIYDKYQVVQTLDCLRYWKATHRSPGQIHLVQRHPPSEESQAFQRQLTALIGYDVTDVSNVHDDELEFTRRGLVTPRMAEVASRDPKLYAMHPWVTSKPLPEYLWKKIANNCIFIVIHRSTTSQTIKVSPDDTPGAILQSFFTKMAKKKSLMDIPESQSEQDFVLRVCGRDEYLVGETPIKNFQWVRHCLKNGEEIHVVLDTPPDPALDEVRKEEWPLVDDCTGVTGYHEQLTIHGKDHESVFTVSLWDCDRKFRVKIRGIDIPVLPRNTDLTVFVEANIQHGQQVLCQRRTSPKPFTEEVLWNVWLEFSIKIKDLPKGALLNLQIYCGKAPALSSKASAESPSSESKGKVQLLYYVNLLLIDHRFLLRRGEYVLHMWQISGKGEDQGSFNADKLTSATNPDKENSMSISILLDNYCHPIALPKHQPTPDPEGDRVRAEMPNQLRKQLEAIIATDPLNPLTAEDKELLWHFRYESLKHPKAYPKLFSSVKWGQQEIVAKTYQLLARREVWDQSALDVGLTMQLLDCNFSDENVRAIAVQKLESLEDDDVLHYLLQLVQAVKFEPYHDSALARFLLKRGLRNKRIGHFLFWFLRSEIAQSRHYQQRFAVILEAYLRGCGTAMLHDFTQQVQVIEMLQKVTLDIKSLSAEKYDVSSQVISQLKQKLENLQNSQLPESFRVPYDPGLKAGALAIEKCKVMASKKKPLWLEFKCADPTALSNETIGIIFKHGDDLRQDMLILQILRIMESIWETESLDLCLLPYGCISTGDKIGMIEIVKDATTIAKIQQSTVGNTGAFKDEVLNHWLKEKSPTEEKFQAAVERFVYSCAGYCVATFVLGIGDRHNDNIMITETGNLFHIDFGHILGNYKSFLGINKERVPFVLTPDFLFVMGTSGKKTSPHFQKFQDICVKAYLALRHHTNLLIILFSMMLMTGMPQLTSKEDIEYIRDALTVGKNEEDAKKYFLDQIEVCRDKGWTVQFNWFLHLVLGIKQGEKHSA
Procedure: PI3K kinases including p110α/p85α, p110δ/p85α and p110γ are purchased from Invitrogen, and p110β/p85α is from Millipore. Primary screening data and IC50 values are measured using Transcreener™ KINASE Assay (Bellbrook, Catalog #3003-10K). […] It is a universal, homogenous, high throughput screening (HTS) technology using a far-red, competitive fluorescence polarization immunoassay based on the detection of ADP to monitor the activity of enzymes that catalyze group transfer reactions. Briefly, the Transcreener KINASE Assay is designed as a simple two-part, endpoint assay. […] The plate is sealed and incubated for 80 min at room temperature. Next, 25 ul ADP detection mix is added per well. The plate is sealed again and incubated for 60 min at room temperature, and then measure fluorescence polarization by Tecan Infinite F500 Reader. Data is analyzed and IC50s are generated using the add-in software for Microsoft Excel, Xlfit™ (version 2.0).

[4] = molecular target: T4, PI3Kγ (Mus musculus, UniProt Q9JHG7); assay: Acumen Assay - Raw264.7 p-AKT Assay (C5a stimulated); assay type: cell-based; conditions: Raw264.7 macrophage cells, compound 30 min, 10 nM C5a 5 min, p-AKT (Ser473) readout; read-out: PI3Kγ cell-C5a Raw264.7 IC50
T4 construct: endogenous in cells; host or cells: Raw264.7 macrophage cells
T4 sequence (Q9JHG7 whole entry): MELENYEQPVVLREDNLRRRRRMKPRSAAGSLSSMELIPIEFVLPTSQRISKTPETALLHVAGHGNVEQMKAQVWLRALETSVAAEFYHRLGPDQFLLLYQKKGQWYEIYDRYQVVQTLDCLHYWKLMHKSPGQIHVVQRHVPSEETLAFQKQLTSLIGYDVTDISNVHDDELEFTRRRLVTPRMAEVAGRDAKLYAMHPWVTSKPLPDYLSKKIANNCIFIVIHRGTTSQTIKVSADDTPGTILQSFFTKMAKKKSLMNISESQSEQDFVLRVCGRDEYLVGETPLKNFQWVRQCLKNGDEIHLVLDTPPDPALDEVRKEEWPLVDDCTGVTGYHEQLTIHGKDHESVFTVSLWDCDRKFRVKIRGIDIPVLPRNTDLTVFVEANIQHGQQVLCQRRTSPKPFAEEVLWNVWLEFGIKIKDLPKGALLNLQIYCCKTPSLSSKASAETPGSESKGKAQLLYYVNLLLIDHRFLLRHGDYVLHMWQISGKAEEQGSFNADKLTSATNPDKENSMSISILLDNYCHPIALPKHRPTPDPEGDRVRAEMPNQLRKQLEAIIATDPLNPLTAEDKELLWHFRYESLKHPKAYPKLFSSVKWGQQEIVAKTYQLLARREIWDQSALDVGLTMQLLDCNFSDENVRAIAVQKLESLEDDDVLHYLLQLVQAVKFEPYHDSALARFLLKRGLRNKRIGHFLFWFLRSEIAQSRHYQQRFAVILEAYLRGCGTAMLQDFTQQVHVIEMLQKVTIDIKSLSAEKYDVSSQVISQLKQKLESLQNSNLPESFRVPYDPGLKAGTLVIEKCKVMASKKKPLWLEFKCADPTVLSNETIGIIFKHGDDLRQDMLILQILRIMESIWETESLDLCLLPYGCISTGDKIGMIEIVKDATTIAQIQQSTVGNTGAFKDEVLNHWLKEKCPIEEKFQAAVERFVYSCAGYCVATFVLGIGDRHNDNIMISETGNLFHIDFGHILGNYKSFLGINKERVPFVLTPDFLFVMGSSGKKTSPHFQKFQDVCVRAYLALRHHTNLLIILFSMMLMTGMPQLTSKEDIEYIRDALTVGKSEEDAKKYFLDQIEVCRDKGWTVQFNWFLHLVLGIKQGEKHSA
Procedure: Acumen® eX3 (A Mμltilaser Microplate Cytometer For Enhanced High Content Screening): TTP LabTech
3×10^4 Raw264.7 macrophage cells were seeded into 96-well plates with DMEM+10% heat-inactivated FBS at […], 90 ul/well, overnight. After starvation for 3 hr at 37° C. under 5% CO2, Raw264.7 cells were treated with 10 ul/well various concentrations of compound or 0.5% DMSO for 30 min, and then stimulated with 10 ul/well 10 nM C5a for 5 min.
1.) Cells were fixed 110 μL of 4% pre-warmed Paraformaldehyde (2% final), incubate for 45 min at room temperature.
2.) Remove paraformaldehyde solution. Add 100 μL of ice-cold 0.1% Triton X-100 in PBS and leave at 4° C. for 30 min.
3.) Wash once in 100 μL PBS.
4.) Incubate with 100 μL blocking buffer (1% BSA, in PBS) for 2 hours at room temperature.
5.) Wash once for 5 min with 100 ul PBS.
6.) Incubate with 40 μL 1:200 dilution of phospho AKT (Ser473) rabbit antibody in antibody dilution buffer (0.1% BSA, in PBS) overnight at 4° C.
7.) Wash for 3 times for 10 min with 100 ul PBS.
8.) Incubate for 90 min at room temperature with 50 μL of goat anti-rabbit Alex488 antibody at a 1:1,000 dilution in antibody dilution buffer (0.1% BSA, in PBS). Cover plate in foil to keep out of light.
9.) Wash for 3 times for 10 min with 100 μL PBS.
10.) Add 50 μL of 1.5 μM Propidium Iodide solution to each well to determine cell number at a 1:1,000 dilution in PBS (stock: 1.5 mM).
11.) Incubate at room temperature for 30 min.
12.) Seal the plate with a black cover-seal (supplied with plate).
13.) Load the plate into the Acumen Explorer and scan with the appropriate instrument settings.

T1 sequence (P42338 whole entry, species assumed): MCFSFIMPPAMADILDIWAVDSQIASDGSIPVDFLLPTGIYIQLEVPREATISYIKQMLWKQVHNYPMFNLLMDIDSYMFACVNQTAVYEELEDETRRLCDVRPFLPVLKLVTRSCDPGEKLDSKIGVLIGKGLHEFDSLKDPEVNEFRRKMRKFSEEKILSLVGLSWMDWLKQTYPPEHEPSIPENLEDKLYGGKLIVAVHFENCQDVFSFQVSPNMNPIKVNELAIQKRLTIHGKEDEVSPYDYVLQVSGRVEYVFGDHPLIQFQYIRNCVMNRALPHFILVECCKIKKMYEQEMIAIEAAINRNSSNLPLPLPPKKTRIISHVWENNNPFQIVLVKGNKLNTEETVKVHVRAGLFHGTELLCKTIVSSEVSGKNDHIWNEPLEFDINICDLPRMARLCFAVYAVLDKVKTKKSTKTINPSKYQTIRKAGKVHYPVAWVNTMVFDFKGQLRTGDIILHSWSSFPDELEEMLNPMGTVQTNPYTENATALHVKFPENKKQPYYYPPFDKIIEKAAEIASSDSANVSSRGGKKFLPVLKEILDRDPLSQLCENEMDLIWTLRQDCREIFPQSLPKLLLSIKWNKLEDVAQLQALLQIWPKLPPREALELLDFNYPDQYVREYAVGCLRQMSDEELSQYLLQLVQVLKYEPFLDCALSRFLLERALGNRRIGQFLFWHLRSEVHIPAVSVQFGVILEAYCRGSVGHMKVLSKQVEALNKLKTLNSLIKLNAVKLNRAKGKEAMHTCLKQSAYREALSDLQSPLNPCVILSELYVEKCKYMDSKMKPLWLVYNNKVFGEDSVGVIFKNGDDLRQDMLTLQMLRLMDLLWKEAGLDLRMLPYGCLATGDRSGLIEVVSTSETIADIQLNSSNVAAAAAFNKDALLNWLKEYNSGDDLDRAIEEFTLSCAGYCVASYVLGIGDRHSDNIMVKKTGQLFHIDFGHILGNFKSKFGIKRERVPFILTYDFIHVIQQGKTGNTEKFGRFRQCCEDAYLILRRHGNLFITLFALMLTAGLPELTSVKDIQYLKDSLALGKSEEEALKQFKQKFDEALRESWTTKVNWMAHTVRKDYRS
T1 sequence (P27986 whole entry partner, species assumed): as the sequence (P27986 whole entry partner, species assumed) above

Compound	PI3Kβ IH % @ 1 uM [1] [%]	PI3Kδ IH % @ 1 uM [2] [%]	PI3Kγ IH % @ 1 uM [3] [%]	IC50 [2] [nM]	IC50 [3] [nM]	IC50 [1] [nM]	IC50 [4] [nM]
COc1cccc(-n2c([C@@H]3CCCN3c3ncnc4[nH]cc(C#N)c34)nn3cccc3c2=O)c1 [Compound 9]	31.1	>100	83.8				
Nc1nc(N2CCC[C@H]2c2nn3cccc3c(=O)n2-c2ccccc2)c2cc[nH]c2n1 [Compound 10]	6.0	60.4	59.5				
Nc1nc(N2CCC[C@H]2c2nn3cccc3c(=O)n2-c2ccccc2)c2cn[nH]c2n1 [Compound 11]	−7.7	22.9	24.4				
O=c1c2cccn2nc([C@@H]2CCCN2c2ncnc3[nH]nc(Br)c23)n1-c1ccccc1 [Compound 12]	23.1	80.6	27.9	158			
O=c1c2cccn2nc([C@@H]2CCCN2c2ncnc3[nH]cnc23)n1-c1cccc(F)c1 [Compound 13]	18.0	97.8	71.9		477		
O=c1c2cccn2nc([C@@H]2CCCN2c2ncnc3[nH]cnc23)n1-c1ccc(F)cc1 [Compound 14]	56.9	90.7	78.1		265		
N#Cc1c[nH]c2ncnc(N3CCC[C@H]3c3nn4cccc4c(=O)n3-c3cccc(F)c3)c12 [Compound 16]	25.1	100	87.3		85		
O=c1c2cccn2nc([C@@H]2CCCN2c2ncnc3[nH]cnc23)n1-c1cccc(Cl)c1 [Compound 17]	9.2	100	60.3				
Nc1ncnc(N2CCC[C@H]2c2nn3cccc3c(=O)n2-c2ccccc2)c1Cl [Compound 18]	30.9	100	53.2				
COc1cccc(-n2c([C@@H]3CCCN3c3ncnc(N)c3C#N)nn3cccc3c2=O)c1 [Compound 19]	24.0	100	75.7		287		
COc1cccc(-n2c([C@@H]3CCCC3c3ncnc4[nH]cnc34)nn3cccc3c2=O)c1 (stereo partly drawn) [Compound 20]	7.5	97.4	68.6				
COc1cccc(-n2c([C@@H]3CCCN3c3ncnc(N)c3Cl)nn3cccc3c2=O)c1 [Compound 21]	−1.3	94.3	30.4				
N#Cc1c[nH]c2ncnc(N3CCC[C@@H]3c3nn4cccc4c(=O)n3-c3ccccc3)c12 [Compound 22]	8.9	7.7	21.2				
N#Cc1cccc(-n2c([C@@H]3CCCN3c3ncnc4[nH]cc(C#N)c34)nn3cccc3c2=O)c1 [Compound 23]	36.9	99.2	81.9		273		
O=c1c2cccn2nc([C@H]2CCCN2c2ncnc3[nH]cnc23)n1-c1ccccc1 [Compound 24]	8.3	17.7	14.1				
CC(Nc1ncnc2[nH]cc(C#N)c12)c1cn2ccc(Cl)c2c(=O)n1-c1cccc(F)c1 (stereo not drawn) [Compound 76]	82.0			4	10		
CC(Nc1ncnc(N)c1C#N)c1cn2ccc(Cl)c2c(=O)n1-c1cc(F)cc(F)c1 (stereo not drawn) [Compound 81]	79.0	>100		6	70		
O=c1c2cccn2nc([C@@H]2CCCN2c2ncnc3[nH]cc(-c4cn[nH]c4)c23)n1-c1ccccc1 [Compound 99]	78.8	>100	94.2	3	6	147	
N#Cc1c[nH]c2ncnc(N3CCC[C@H]3c3nn4c(F)ccc4c(=O)[nH]3)c12 [Compound 106, (S)-4-(2-(7-fluoro-4-oxo-3,4-dihydropyrrolo[1,2-f][1,2,4]triazin-2-yl)pyrrolidin-1-yl)-7H-pyrrolo[2,3-d]pyrimidine-5-carbonitrile]	61.9	86.8	41.1	232			
N#Cc1n[nH]c2ncnc(N3CCC[C@H]3c3nn4cccc4c(=O)n3-c3ccccc3)c12 [Compound 110, (S)-4-(2-(4-oxo-3-phenyl-3,4-dihydropyrrolo[1,2-f][1,2,4]triazin-2-yl)pyrrolidin-1-yl)-1H-pyrazolo[3,4-d]pyrimidine-3-carbonitrile]	23.9	72.8	38.7				
N#Cc1ccn2nc([C@@H]3CCCN3c3ncnc4[nH]cnc34)n(-c3ccccc3)c(=O)c12 [Compound 112]	34.5	94.6	96.4	26	231		
CC(Nc1ncnc2[nH]cc(C#N)c12)c1cc2cccn2c(=O)n1-c1ccccc1 (stereo not drawn) [Compound 121]	63.9	92.7	>100				
O=c1c2c(Cl)ccn2nc([C@@H]2CC(F)(F)CN2c2ncnc3[nH]cnc23)n1Cc1ccccn1 [Compound 159]	32.8	85.0	20.4	127			
C[S+]([O-])c1c[nH]c2ncnc(N3CCC[C@H]3c3nn4ccc(Cl)c4c(=O)n3-c3ccccc3)c12 (stereo partly drawn) [Compound 188]				5	17	741	
O=c1c2c(F)ccn2nc([C@@H]2CCCN2c2ncnc3[nH]cnc23)n1-c1cccc(F)c1 [Compound 191]							54
CC(=O)c1cnc(N)nc1N1C[C@H](C)[C@H]1c1nn2ccc(Cl)c2c(=O)n1-c1ccc(F)cc1 [Compound 206]							5
C[C@H]1CCN(c2ncnc3[nH]cc(C#N)c23)C1c1nn2ccc(Cl)c2c(=O)n1-c1ccccc1 (stereo partly drawn) [Compound 233]				4	13	26	
C[C@H]1CCN(c2ncnc3[nH]cnc23)C1c1nn2ccc(Cl)c2c(=O)n1-c1ccccc1 (stereo partly drawn) [Compound 234]				2	12	50	
O=c1c2c(Cl)ccn2nc([C@@H]2CCCN2c2ncnc3[nH]cnc23)n1CC1CC1 [Compound 256]	68.1	97.5	>100	6	82		
N#Cc1cnc(N)nc1N1CCC1c1nn2ccc(Cl)c2c(=O)n1CC1CC1 (stereo not drawn) [Compound 373]				27	361	> 1000	
